Like-named read-outs stand apart in the source and are kept apart here.

For data set [1] the following is noted: amide bond, 18-membered ring, HATU/HOAt/2,6-lutidine, DCM.
Data set [2] addresses human PCSK9 (Homo sapiens, UniProt Q8NBP7). The experiment in a line: PCSK9 ligand binding TR-FRET assay (interference with binding of human PCSK9 to human LDLR). To be noted: for Max % inhibition: PCSK9 FRET assay, efficacy (Amax), 100% = 1 uM unlabeled human PCSK9, 0% = DMSO; for IC50: TR-FRET, human PCSK9 Alexa Fluor 647 / human LDLR extracellular domain-Europium Kryptate, read-out: PCSK9 FRET Assay IC50. Put shortly: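 Threefold compound dilutions were pre-incubated 30 min with PCSK9, after which 4 nM Europium Kryptate-tagged human LDLR ectodomain was added for a further 2 h.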
A general note: In TR-FRET formats the signal depends on donor and acceptor labels being close together.

Chain of human PCSK9 (Q8NBP7 153-692): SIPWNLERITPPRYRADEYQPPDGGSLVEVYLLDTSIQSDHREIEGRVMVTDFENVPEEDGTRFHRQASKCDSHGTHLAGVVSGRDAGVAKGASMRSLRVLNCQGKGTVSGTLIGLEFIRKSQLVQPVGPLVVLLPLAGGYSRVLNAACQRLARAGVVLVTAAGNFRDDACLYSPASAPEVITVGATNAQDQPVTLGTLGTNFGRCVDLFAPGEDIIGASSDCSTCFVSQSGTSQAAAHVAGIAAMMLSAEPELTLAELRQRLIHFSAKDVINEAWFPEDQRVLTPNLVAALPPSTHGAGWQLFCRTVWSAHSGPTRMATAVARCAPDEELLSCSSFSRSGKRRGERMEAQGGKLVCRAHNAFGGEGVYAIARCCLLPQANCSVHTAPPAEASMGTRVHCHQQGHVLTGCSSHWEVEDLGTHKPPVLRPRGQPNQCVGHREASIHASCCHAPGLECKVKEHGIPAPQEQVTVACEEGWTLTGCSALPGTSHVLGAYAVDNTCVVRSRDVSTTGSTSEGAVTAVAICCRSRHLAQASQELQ
Chain of human PCSK9 (Q8NBP7 31-152 partner limits assumed): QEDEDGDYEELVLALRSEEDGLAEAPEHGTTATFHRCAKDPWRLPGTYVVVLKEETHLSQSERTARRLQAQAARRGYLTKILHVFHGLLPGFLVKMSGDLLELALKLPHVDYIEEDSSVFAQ

`C[C@H]1CNC(=O)C[C@H](Cc2ccc(Cl)cc2)N(C)C(=O)[C@H](CC(=O)OC(C)(C)C)NC(=O)[C@H](C)N(Cc2ccc(Cl)cc2Oc2ccc(-c3cnc(CN(C)C)n3C)cc2)C(=O)C[C@@H](Cc2ccccc2)C(=O)N1C` [Compound 185, tert-butyl 2-((2S,5S,8S,13S,16R)-16-benzyl-1-(4-chloro-2-(4-(2-((dimethylamino)methyl)-1-methyl-1H-imidazol-5-yl)phenoxy)benzyl)-8-(4-chlorobenzyl)-2,7,13,14-tetramethyl-3,6,10,15,18-pentaoxo-1,4,7,11,14-pentaazacyclooctadecan-5-yl)acetate] displayed a ring closure, isolated yield in data set [1] (from (3S,6S,9S,14S,17R)-17-benzyl-6-(2-(tert-butoxy)-2-oxoethyl)-1-(4-chloro-2-(4-(2-((dimethyl amino)methyl)-1-methyl-1H-imidazol-5-yl)phenoxy)phenyl)-9-(4-chlorobenzyl)-3,8,14,15-tetramethyl-4,7,11,16-tetraoxo-2,5,8,12,15-pentaazanonadecan-19-oic acid, 1.85 mM, 45.0 °C) of 46%. In data set [2], the Max % inhibition came to 96.86% and the 50% inhibitory concentration (IC50) (as a rule, the concentration needed to halve the response being measured) was found to be 11.5 nM.

`CCc1ccc(CN2C(=O)C[C@@H](Cc3ccccc3)C(=O)N(C)[C@@H](C)CNC(=O)C[C@H](Cc3ccc(Cl)cc3)N(C)C(=O)[C@H](COC)NC(=O)[C@@H]2CCF)c(Oc2ccc(-c3cnc(CN4CCCC4)n3C)cc2)c1` [Compound 26, (2S,5S,8S,13S,16R)-16-benzyl-8-(4-chlorobenzyl)-1-(4-ethyl-2-(4-(1-methyl-2-(pyrrolidin-1-ylmethyl)-1H-imidazol-5-yl)phenoxy)benzyl)-2-(2-fluoroethyl)-5-(methoxymethyl)-7,13,14-trimethyl-1,4,7,11,14-pentaazacyclooctadecane-3,6,10,15,18-pentaone]: the ring closure, isolated yield in data set [1] (from (3S,6S,9S,14S,17R)-17-benzyl-9-(4-chlorobenzyl)-1-(4-ethyl-2-(4-(1-methyl-2-(pyrrolidin-1-ylmethyl)-1H-imidazol-5-yl)phenoxy)phenyl)-3-(2-fluoroethyl)-6-(methoxymethyl)-8,14,15-trimethyl-4,7,11,16-tetraoxo-2,5,8,12,15-pentaazanonadecan-19-oic acid, 0.238 mM, 39.0 °C) was determined as 47%. In data set [2], the Max % inhibition was 104.11% and the IC50 is 2.4 nM.

Regarding `C=CC[C@@H]1CC(=O)N(Cc2ccc(Cl)cc2Oc2ccc(-c3cnc(CN(C)C)n3C)cc2)[C@@H](C)C(=O)N[C@@H](COC)C(=O)N(C)[C@@H](Cc2ccc(Cl)cc2)CC(=O)NC[C@H](C)N(C)C1=O` [Compound 44, (2S,5S,8S,13S,16R)-16-allyl-1-(4-chloro-2-(4-(2-((dimethylamino)methyl)-1-methyl-1H-imidazol-5-yl)phenoxy)benzyl)-8-(4-chlorobenzyl)-5-(methoxymethyl)-2,7,13,14-tetramethyl-1,4,7,11,14-pentaaza cyclooctadecane-3,6,10,15,18-pentaone], the ring closure, isolated yield in data set [1] (from (3S,6S,9S,14S,17R)-17-allyl-1-(4-chloro-2-(4-(2-((dimethylamino)methyl)-1-methyl-1H-imidazol-5-yl)phenoxy)phenyl)-9-(4-chlorobenzyl)-6-(methoxymethyl)-3,8,14,15-tetramethyl-4,7,11,16-tetraoxo-2,5,8,12,15-pentaazanonadecan-19-oic acid, 45.0 °C) came to 26%. Further, in data set [2], the Max % inhibition stood at 102.15% and the IC50 is 2.6 nM.

Regarding `COC[C@@H]1NC(=O)[C@H](C)N(Cc2ccc(Cl)cc2Oc2ccc(-c3cnc(CN(C)C)n3C)cc2)C(=O)C[C@@H](Cc2ccccc2)C(=O)N(C)C2CCOCC2NC(=O)C[C@H](Cc2ccc(Cl)cc2)N(C)C1=O` (stereo partly shown), in data set [1] (from (3R)-3-benzyl-4-((3-((S)-3-((S)-2-((S)-2-((4-chloro-2-(4-(2-((dimethylamino)methyl)-1-methyl-1H-imidazol-5-yl)phenoxy)benzyl)amino)propanamido)-3-methoxy-N-methylpropanamido)-4-(4-chloro phenyl)butanamido)tetrahydro-2H-pyran-4-yl)(methyl)amino)-4-oxobutanoic acid, 45.0 °C), the ring closure, isolated yield came out at 17%.

Turning to `COC[C@@H]1NC(=O)[C@H](CCNC(=O)OC(C)(C)C)N(Cc2ccc(Cl)cc2Oc2ccc(-c3cnc(CN(C)C)n3C)cc2)C(=O)C[C@@H](Cc2ccccc2)C(=O)N(C)[C@H]2CCCC[C@@H]2NC(=O)C[C@H](Cc2ccc(Cl)cc2)N(C)C1=O`, the ring closure, isolated yield in data set [1] (from (R)-3-Benzyl-4-(((1S,2S)-2-((8S,11S,14S)-8-((4-chloro-2-(4-(2-((dimethylamino)methyl)-1-methyl-1H-imidazol-5-yl)phenoxy)benzyl)amino)-14-(4-chlorobenzyl)-11-(methoxymethyl)-2,2,13-trimethyl-4,9,12-trioxo-3-oxa-5,10,13-triazahexadecan-16-amido)cyclohexyl)(methyl)amino)-4-oxobutanoic acid, 0.845 mM, 45.0 °C) amounted to 59.6%.

Consider `COC[C@@H]1NC(=O)[C@H](C)N(Cc2ccc(Cl)cc2Oc2ccc(-c3cnc(CN(C)C)n3C)cc2)C(=O)C[C@@H](Cc2ccccc2)C(=O)N(C)[C@H]2CCCC[C@@H]2NC(=O)C[C@H](Cc2ccc(Cl)cc2)N(C)C1=O` [Compound 145, (4S,7S,10S,14R,16aS,20aS)-14-benzyl-11-(4-chloro-2-(4-(2-((dimethylamino)methyl)-1-methyl-1H-imidazol-5-yl)phenoxy)benzyl)-4-(4-chlorobenzyl)-7-(methoxymethyl)-5,10,16-trimethylhexadecahydrobenzo[l][1,4,7,11,14]pentaazacyclooctadecine-2,6,9,12,15(3H)-pentaone], for which, in data set [2], the Max % inhibition is listed as 102.40% and the IC50 is 1.1 nM.

For the compound `COC[C@@H]1NC(=O)[C@H](C)N(Cc2ccc(Cl)cc2Oc2cccc(C(=O)NC3CCNCC3)c2)C(=O)C[C@@H](Cc2ccccc2)C(=O)N(C)[C@@H](C)CNC(=O)C[C@H](Cc2ccc(Cl)cc2)N(C)C1=O` [Compound 113, 3-(2-(((2S,5S,8S,13S,16R)-16-benzyl-8-(4-chlorobenzyl)-5-(methoxymethyl)-2,7,13,14-tetramethyl-3,6,10,15,18-pentaoxo-1,4,7,11,14-pentaazacyclooctadecan-1-yl)methyl)-5-chlorophenoxy)-N-(piperidin-4-yl)benzamide], in data set [2], the Max % inhibition is listed as 53.35% and the IC50 worked out at 299 nM.

Take `COC[C@@H]1NC(=O)[C@H](C)N(Cc2ccc(Cl)cc2Oc2ccc(-c3cnc(CN(C)C)n3C)cc2)C(=O)C[C@@H](Cc2ccccc2)C(=O)N(C)C(C)C(C)NC(=O)C[C@H](Cc2ccc(Cl)cc2)N(C)C1=O` (stereo partly drawn) [Compound 50, (2S,5S,8S,16R)-16-benzyl-1-(4-chloro-2-(4-(2-((dimethylamino)methyl)-1-methyl-1H-imidazol-5-yl)phenoxy)benzyl)-8-(4-chlorobenzyl)-5-(methoxymethyl)-2,7,12,13,14-pentamethyl-1,4,7,11,14-pentaazacyclooctadecane-3,6,10,15,18-pentaone]: in data set [2], the Max % inhibition was determined as 101.21% and the IC50 was determined as 41 nM.

`COC[C@@H]1NC(=O)[C@H](C)N(Cc2ccc(Cl)cc2Oc2ccc(-c3cnc(CN(C)C)n3C)cc2)C(=O)C[C@@H](Cc2cccc(OC(F)F)c2)C(=O)N(C)[C@@H](C)CNC(=O)C[C@H](Cc2ccc(Cl)cc2)N(C)C1=O` [Compound 238, (2S,5S,8S,13S,16R)-1-(4-chloro-2-(4-(2-((dimethylamino)methyl)-1-methyl-1H-imidazol-5-yl)phenoxy)benzyl)-8-(4-chlorobenzyl)-16-(3-(difluoromethoxy)benzyl)-5-(methoxymethyl)-2,7,13,14-tetramethyl-1,4,7,11,14-pentaazacyclooctadecane-3,6,10,15,18-pentaone]: in data set [2], the Max % inhibition stood at 104.90% and the IC50 was found to be 2.5 nM.

As for `COC[C@@H]1NC(=O)[C@H](C)N(Cc2ccc(Cl)cc2Oc2ccc(-c3cnc(CN(C)C)n3C)cc2)C(=O)C[C@H]2C(=O)N(C)[C@@H](CNC(=O)C[C@H](Cc3ccc(Cl)cc3)N(C)C1=O)C(=O)N2C` [Compound 262, (1S,6S,9S,12S,16S)-13-(4-chloro-2-(4-(2-((dimethylamino)methyl)-1-methyl-1H-imidazol-5-yl)phenoxy)benzyl)-6-(4-chlorobenzyl)-9-(methoxymethyl)-7,12,17,19-tetramethyl-3,7,10,13,17,19-hexaazabicyclo[14.2.2]icosane-4,8,11,14,18,20-hexaone], in data set [2], the Max % inhibition is given as 97.63% and the half-inhibitory concentration (IC50) stood at 205 nM.

On to `COC[C@@H]1NC(=O)[C@H](C)N(Cc2ccc(Cl)cc2Oc2ccc(-c3cnc(CN(C)C)n3C)cc2)C(=O)C[C@@H](Cc2ccc(F)c(F)c2F)C(=O)N(C)[C@@H](C)CNC(=O)C[C@H](Cc2ccc(Cl)cc2)N(C)C1=O` [Compound 33, (2S,5S,8S,13S,16R)-1-(4-chloro-2-(4-(2-((dimethylamino)methyl)-1-methyl-1H-imidazol-5-yl)phenoxy)benzyl)-8-(4-chlorobenzyl)-5-(methoxymethyl)-2,7,13,14-tetramethyl-16-(2,3,4-trifluorobenzyl)-1,4,7,11,14-pentaazacyclooctadecane-3,6,10,15,18-pentaone], for which, in data set [2], the Max % inhibition stood at 95.65% and the IC50 turned out to be 1.3 nM.

Regarding `COC[C@@H]1NC(=O)[C@@H](C)N(Cc2ccc(Cl)cc2Oc2ccc(-c3cnc(CN(C)C)n3C)cc2)C(=O)C[C@@H](Cc2ccccc2)C(=O)N(C)[C@H]2CCOC[C@@H]2NC(=O)C[C@H](Cc2ccc(Cl)cc2)N(C)C1=O` [Compound 294, (4S,7S,10R,14R,16aS,20aR)-14-benzyl-11-(4-chloro-2-(4-(2-((dimethylamino)methyl)-1-methyl-1H-imidazol-5-yl)phenoxy)benzyl)-4-(4-chlorobenzyl)-7-(methoxymethyl)-5,10,16-trimethyltetradecahydro-1H-pyrano[3,4-l][1,4,7,11,14]pentaazacyclooctadecine-2,6,9,12,15(3H)-pentaone], in data set [2], the Max % inhibition turned out to be 55.44% and the 50% inhibitory concentration (IC50) came out at 105 nM.

The values above are taken from patent publication US20230089867A1, “CYCLIC PENTAMER COMPOUNDS AS PROPROTEIN CONVERTASE SUBTILISIN/KEXIN TYPE 9 (PCSK9) INHIBITORS FOR THE TREATMENT OF METABOLIC DISORDER” (Novartis AG, priority 2018, published 2023).
